≈ marks a conversion by molar mass, not a printed value.
Columns and labels:
[1] = test system: Mycobacterium tuberculosis; assay: Antimycobacterial activity against Mycobacterium tuberculosis H37Rv ATCC 27294 after 14 days by resazurin reduction microplate assay; assay type: functional; conditions: H37Rv ATCC 27294, 336 h
[2] = test system: Mycobacterium tuberculosis; assay: Antimycobacterial activity against Mycobacterium tuberculosis H37Rv; assay type: functional

Row | SMILES | MIC [2] | further results
1 | CC[C@H](C)[C@H](NC(=O)N[C@@H](Cc1c[nH]c2ccccc12)C(=O)O)C(=O)N[C@H](C(=O)NC[C@H]1C[C@@H](O)[C@H](n2ccc(=O)[nH]c2=O)O1)[C@H](C)N(C)C(=O)CN | – | MIC50 [1]: 0.93 µM (≈ 0.69 µg/mL)
2 | CCCCCCCCCCCCCCCCCCCCCNC(=O)C1=CCN(C)[C@@H]([C@H](O[C@@H]2O[C@H](CN)[C@@H](O)[C@H]2O)[C@H]2O[C@@H](n3ccc(=O)[nH]c3=O)[C@H](O)[C@@H]2O)C(=O)N1C | 0.98 µM (≈ 0.834 µg/mL) | –
3 | CCCCCCCCCCNC(=O)C1=CCN(C)[C@@H]([C@H](O[C@@H]2O[C@H](CN)[C@@H](O)[C@H]2O)[C@H]2O[C@@H](n3ccc(=O)[nH]c3=O)[C@H](O)[C@@H]2O)C(=O)N1C | 0.98 µM (≈ 0.683 µg/mL) | –
4 | CCCCCCCCCCCCNC(=O)C1=CCN(C)[C@@H]([C@H](O[C@@H]2O[C@H](CN)[C@@H](O)[C@H]2O)[C@H]2O[C@@H](n3ccc(=O)[nH]c3=O)[C@H](O)[C@@H]2O)C(=O)N1C | 0.98 µM (≈ 0.71 µg/mL) | –
5 | CCCCCNC(=O)C1=CCN(C)[C@@H]([C@H](O[C@@H]2O[C@H](CN)[C@@H](O)[C@H]2O)[C@H]2O[C@@H](n3ccc(=O)[nH]c3=O)[C@H](O)[C@@H]2O)C(=O)N1C | 0.98 µM (≈ 0.614 µg/mL) | –
6 | C[C@@H]([C@H](NC(=O)[C@H](Cc1ccc(O)cc1)NC(=O)N[C@@H](Cc1c[nH]c2ccccc12)C(=O)O)C(=O)NC[C@H]1C[C@@H](O)[C@H](n2ccc(=O)[nH]c2=O)O1)N(C)C(=O)CN | – | MIC50 [1]: 0.52 µM (≈ 0.412 µg/mL)
7 | CCCCOc1ccc(NC(=O)C2=CCN(C)[C@@H]([C@H](O[C@@H]3O[C@H](CN)[C@@H](O)[C@H]3O)[C@H]3O[C@@H](n4ccc(=O)[nH]c4=O)[C@H](O)[C@@H]3O)C(=O)N2C)cc1 | 1.04 µM (≈ 0.733 µg/mL) | –
8 | CCCCCCCCCCCCCOC(=O)C1=CCN(C)[C@@H]([C@H](O[C@@H]2O[C@H](CN)[C@@H](O)[C@H]2O)[C@H]2O[C@@H](n3ccc(=O)[nH]c3=O)[C@H](O)[C@@H]2O)C(=O)N1C | 8.45 µM (≈ 6.25 µg/mL) | –
9 | CCCCCCCCCCCCCNC(=O)C1=CCN(C)[C@@H]([C@H](O[C@@H]2O[C@H](CN)[C@@H](O)[C@H]2O)[C@H]2O[C@@H](n3ccc(=O)[nH]c3=O)[C@H](O)[C@@H]2O)C(=O)N1C | 0.98 µM (≈ 0.724 µg/mL) | –
10 | CCCCCCCCCNC(=O)C1=CCN(C)[C@@H]([C@H](O[C@@H]2O[C@H](CN)[C@@H](O)[C@H]2O)[C@H]2O[C@@H](n3ccc(=O)[nH]c3=O)[C@H](O)[C@@H]2O)C(=O)N1C | 0.98 µM (≈ 0.669 µg/mL) | –
11 | CCCCc1ccc(N)cc1 | 2.27 µM (≈ 0.339 µg/mL) | –
12 | C[C@@H]([C@H](NC(=O)[C@H](CCc1ccccc1)NC(=O)N[C@@H](Cc1c[nH]c2ccccc12)C(=O)O)C(=O)NC[C@H]1C[C@@H](O)[C@H](n2ccc(=O)[nH]c2=O)O1)N(C)C(=O)CN | – | MIC50 [1]: 1.08 µM (≈ 0.853 µg/mL)
13 | CC(C)[C@H](NC(=O)N[C@@H](Cc1c[nH]c2ccccc12)C(=O)O)C(=O)N[C@H](C(=O)N/C=C1/C[C@@H](O)[C@H](n2ccc(=O)[nH]c2=O)O1)[C@H](C)N(C)C(=O)[C@@H](N)Cc1cccc(O)c1 | – | MIC [1]: 9.5 µM (≈ 7.9 µg/mL)
14 | CC(C)C[C@H](NC(=O)N[C@@H](Cc1c[nH]c2ccccc12)C(=O)O)C(=O)N[C@H](C(=O)NC[C@H]1C[C@@H](O)[C@H](n2ccc(=O)[nH]c2=O)O1)[C@H](C)N(C)C(=O)[C@@H](N)CCCCN | – | MIC50 [1]: 1.35 µM (≈ 1.1 µg/mL)
15 | CCCCCCCCNC(=O)C1=CCN(C)[C@@H]([C@H](O[C@@H]2O[C@H](CN)[C@@H](O)[C@H]2O)[C@H]2O[C@@H](n3ccc(=O)[nH]c3=O)[C@H](O)[C@@H]2O)C(=O)N1C | 0.98 µM (≈ 0.655 µg/mL) | –
16 | CN1C(=O)[C@H]([C@H](O[C@@H]2O[C@H](CN)[C@@H](O)[C@H]2O)[C@H]2O[C@@H](n3ccc(=O)[nH]c3=O)[C@H](O)[C@@H]2O)N(C)CC=C1C(=O)Nc1ccc(C2CCCCC2)cc1 | 2.18 µM (≈ 1.56 µg/mL) | –
17 | CCCCCCCCCCOC(=O)C1=CCN(C)[C@@H]([C@H](O[C@@H]2O[C@H](CN)[C@@H](O)[C@H]2O)[C@H]2O[C@@H](n3ccc(=O)[nH]c3=O)[C@H](O)[C@@H]2O)C(=O)N1C | 8.45 µM (≈ 5.9 µg/mL) | –
18 | CN1C(=O)[C@H]([C@H](O[C@@H]2O[C@H](CN)[C@@H](O)[C@H]2O)[C@H]2O[C@@H](n3ccc(=O)[nH]c3=O)[C@H](O)[C@@H]2O)N(C)CC=C1C(=O)NC1CCCCCCCCCCC1 | 2.16 µM (≈ 1.56 µg/mL) | –
19 | CCCCCCNC(=O)C1=CCN(C)[C@@H]([C@H](O[C@@H]2O[C@H](CN)[C@@H](O)[C@H]2O)[C@H]2O[C@@H](n3ccc(=O)[nH]c3=O)[C@H](O)[C@@H]2O)C(=O)N1C | 0.98 µM (≈ 0.628 µg/mL) | –
20 | CC(C)C[C@H](NC(=O)N[C@@H](Cc1c[nH]c2ccccc12)C(=O)O)C(=O)N[C@H](C(=O)NC[C@H]1C[C@@H](O)[C@H](n2ccc(=O)[nH]c2=O)O1)[C@H](C)N(C)C(=O)[C@@H](N)C1CCCCC1 | – | MIC50 [1]: 1.1 µM (≈ 0.906 µg/mL)
21 | CCCCOc1ccc(N)cc1 | 2.27 µM (≈ 0.375 µg/mL) | –
22 | CC(C)C[C@H](NC(=O)N[C@@H](Cc1c[nH]c2ccccc12)C(=O)O)C(=O)N[C@H](C(=O)NC[C@H]1C[C@@H](O)[C@H](n2ccc(=O)[nH]c2=O)O1)[C@H](C)N(C)C(=O)[C@@H](N)Cc1cccc(O)c1 | – | MIC50 [1]: 0.3 µM (≈ 0.254 µg/mL)

Row | SMILES | MIC [2] | further results
23 | CCCCCCCC/C=C\CCCCCCCCNC(=O)C1=CCN(C)[C@@H]([C@H](O[C@@H]2O[C@H](CN)[C@@H](O)[C@H]2O)[C@H]2O[C@@H](n3ccc(=O)[nH]c3=O)[C@H](O)[C@@H]2O)C(=O)N1C | 3.88 µM (≈ 3.13 µg/mL) | –
24 | CCCCCCCCCCCCCCCCCCOC(=O)C1=CCN(C)[C@@H]([C@H](O[C@@H]2O[C@H](CN)[C@@H](O)[C@H]2O)[C@H]2O[C@@H](n3ccc(=O)[nH]c3=O)[C@H](O)[C@@H]2O)C(=O)N1C | 8.45 µM (≈ 6.84 µg/mL) | –
25 | CCCCCCCNC(=O)C1=CCN(C)[C@@H]([C@H](O[C@@H]2O[C@H](CN)[C@@H](O)[C@H]2O)[C@H]2O[C@@H](n3ccc(=O)[nH]c3=O)[C@H](O)[C@@H]2O)C(=O)N1C | 0.98 µM (≈ 0.642 µg/mL) | –
26 | CO[C@@H]1[C@@H](OC)[C@H](C)O[C@@H](OC(=O)C[C@@H](C)CC(=O)O[C@@H](CCCCCCCCCCC(C)C)CC(=O)O[C@H]2CN(C)[C@@H]([C@H](O[C@@H]3O[C@H](CN)[C@@H](O)[C@H]3O)[C@H]3O[C@@H](n4ccc(=O)[nH]c4=O)[C@H](O)[C@@H]3O)C(=O)N(C)[C@@H]2C(=O)O)[C@@H]1OC | 2.73 µM (≈ 3.13 µg/mL) | –
27 | CCCCCCCOc1ccc(NC(=O)C2=CCN(C)[C@@H]([C@H](O[C@@H]3O[C@H](CN)[C@@H](O)[C@H]3O)[C@H]3O[C@@H](n4ccc(=O)[nH]c4=O)[C@H](O)[C@@H]3O)C(=O)N2C)cc1 | 0.98 µM (≈ 0.732 µg/mL) | –
28 | CCCCCCCCCCCCCCCNC(=O)C1=CCN(C)[C@@H]([C@H](O[C@@H]2O[C@H](CN)[C@@H](O)[C@H]2O)[C@H]2O[C@@H](n3ccc(=O)[nH]c3=O)[C@H](O)[C@@H]2O)C(=O)N1C | 0.98 µM (≈ 0.752 µg/mL) | –
29 | CCCCc1ccc(NC(=O)C2=CCN(C)[C@@H]([C@H](O[C@@H]3O[C@H](CN)[C@@H](O)[C@H]3O)[C@H]3O[C@@H](n4ccc(=O)[nH]c4=O)[C@H](O)[C@@H]3O)C(=O)N2C)cc1 | 1.09 µM (≈ 0.751 µg/mL) | –
30 | CC/C=C\CCCCCCCCCCOC(=O)C1=CCN(C)[C@@H]([C@H](O[C@@H]2O[C@H](CN)[C@@H](O)[C@H]2O)[C@H]2O[C@@H](n3ccc(=O)[nH]c3=O)[C@H](O)[C@@H]2O)C(=O)N1C | 16.6 µM (≈ 12.5 µg/mL) | –
31 | CCCCCCCCCCCNC(=O)C1=CCN(C)[C@@H]([C@H](O[C@@H]2O[C@H](CN)[C@@H](O)[C@H]2O)[C@H]2O[C@@H](n3ccc(=O)[nH]c3=O)[C@H](O)[C@@H]2O)C(=O)N1C | 0.98 µM (≈ 0.697 µg/mL) | –
32 | CCCCCCCCCCCCCCCCCCCCNC(=O)C1=CCN(C)[C@@H]([C@H](O[C@@H]2O[C@H](CN)[C@@H](O)[C@H]2O)[C@H]2O[C@@H](n3ccc(=O)[nH]c3=O)[C@H](O)[C@@H]2O)C(=O)N1C | 0.98 µM (≈ 0.82 µg/mL) | –
33 | C=CCCCCCCCCCOC(=O)C1=CCN(C)[C@@H]([C@H](O[C@@H]2O[C@H](CN)[C@@H](O)[C@H]2O)[C@H]2O[C@@H](n3ccc(=O)[nH]c3=O)[C@H](O)[C@@H]2O)C(=O)N1C | 17.6 µM (≈ 12.5 µg/mL) | –
34 | CCc1ccc(NC(=O)C2=CCN(C)[C@@H]([C@H](O[C@@H]3O[C@H](CN)[C@@H](O)[C@H]3O)[C@H]3O[C@@H](n4ccc(=O)[nH]c4=O)[C@H](O)[C@@H]3O)C(=O)N2C)cc1 | 1.09 µM (≈ 0.72 µg/mL) | –
35 | CCCCCCCCCCCCCCCCCCNC(=O)C1=CCN(C)[C@@H]([C@H](O[C@@H]2O[C@H](CN)[C@@H](O)[C@H]2O)[C@H]2O[C@@H](n3ccc(=O)[nH]c3=O)[C@H](O)[C@@H]2O)C(=O)N1C | 0.98 µM (≈ 0.793 µg/mL) | –
36 | Nc1ccc(C2CCCCC2)cc1 | 2.27 µM (≈ 0.398 µg/mL) | –
37 | CCCCCCCCCCCCc1ccc(NC(=O)C2=CCN(C)[C@@H]([C@H](O[C@@H]3O[C@H](CN)[C@@H](O)[C@H]3O)[C@H]3O[C@@H](n4ccc(=O)[nH]c4=O)[C@H](O)[C@@H]3O)C(=O)N2C)cc1 | 1.09 µM (≈ 0.873 µg/mL) | –
38 | CCCCCCCc1ccc(NC(=O)C2=CCN(C)[C@@H]([C@H](O[C@@H]3O[C@H](CN)[C@@H](O)[C@H]3O)[C@H]3O[C@@H](n4ccc(=O)[nH]c4=O)[C@H](O)[C@@H]3O)C(=O)N2C)cc1 | 1.09 µM (≈ 0.797 µg/mL) | –
39 | CCCCCCCCCCCCCCNC(=O)C1=CCN(C)[C@@H]([C@H](O[C@@H]2O[C@H](CN)[C@@H](O)[C@H]2O)[C@H]2O[C@@H](n3ccc(=O)[nH]c3=O)[C@H](O)[C@@H]2O)C(=O)N1C | 0.98 µM (≈ 0.738 µg/mL) | –
40 | CCCCCCc1ccc(NC(=O)C2=CCN(C)[C@@H]([C@H](O[C@@H]3O[C@H](CN)[C@@H](O)[C@H]3O)[C@H]3O[C@@H](n4ccc(=O)[nH]c4=O)[C@H](O)[C@@H]3O)C(=O)N2C)cc1 | 1.09 µM (≈ 0.781 µg/mL) | –
41 | CCCCCCCCCCCCCCCCNC(=O)C1=CCN(C)[C@@H]([C@H](O[C@@H]2O[C@H](CN)[C@@H](O)[C@H]2O)[C@H]2O[C@@H](n3ccc(=O)[nH]c3=O)[C@H](O)[C@@H]2O)C(=O)N1C | 0.98 µM (≈ 0.765 µg/mL) | –
42 | CCCCCCCCCCCCCCCCCNC(=O)C1=CCN(C)[C@@H]([C@H](O[C@@H]2O[C@H](CN)[C@@H](O)[C@H]2O)[C@H]2O[C@@H](n3ccc(=O)[nH]c3=O)[C@H](O)[C@@H]2O)C(=O)N1C | 0.98 µM (≈ 0.779 µg/mL) | –
43 | CCCCCCCCCCCCCCCCCCCNC(=O)C1=CCN(C)[C@@H]([C@H](O[C@@H]2O[C@H](CN)[C@@H](O)[C@H]2O)[C@H]2O[C@@H](n3ccc(=O)[nH]c3=O)[C@H](O)[C@@H]2O)C(=O)N1C | 0.98 µM (≈ 0.807 µg/mL) | –

From ChEMBL document CHEMBL4725382, “Uridine natural products: Challenging targets and inspiration for novel small molecule inhibitors” (Bioorg Med Chem, 2020)
